Test results published in US20090203610A1, “METHODS OF TREATING OBESITY OR DIABETES USING NT-4/5” (RINAT NEUROSCIENCE CORPORATION, priority 2004, published 2009).

How the values were obtained:
Settings in all cases: NT-4/5 20 mg/kg s.c., Rosiglitazone 3 mg/kg p.o.
[1] = system: db/db mice; assay: Blood triglyceride levels in db/db mice (Example 1); assay type: in vivo
Procedure: Test animals: 24 female 10-12 weeks old db/db mice (C57BL/Ks J Rj-db/db, Janvier, France), weighing in the target range of 40-50 g, were used in this study. […] Upon receipt at animal facilities, they were housed 4 per cage covered with filtered caps and at least a 5-day acclimation period was observed.
(§1) The mice were divided into three groups of 8 mice each (groups 1-3). Each group was treated with vehicle (PBS) subcutaneously (s.c.), 3 mg/kg Rosiglitazone orally (p.o.), or 20 mg/kg NT-4/5 subcutaneously (s.c.). From day 1 to day 5 (T1-T5) and then from day 8 to day 12 (T8-T12), the mice in groups 2 and 3 were dosed once daily for 5 consecutive days, with a volume of 10 ml/kg.
Collection of samples for analysis: One day before beginning the treatment (T0), non fasted db/db mice were weighed and blood samples were collected through the retro-orbital plexus (about 300 μL/mouse) under isoflurane anesthesia. Similarly, at day 5 (T5), day 12 (T12), day 19 (T19) and day 26 (T26), two hours after the last administration, blood samples were collected through the retro-orbital plexus under isoflurane anesthesia in non fasted mice. […] An aliquot of serum was used for measuring glucose levels, the remaining was frozen until use.
(§2) Analysis of blood samples in db/db mice: Pre- and post dose serum levels of glucose, HbA1c, cholesterol and triglycerides, insulin, and non esterified fatty acids (NEFA), as well as aspirate amino-transferase (AST) and alanine amino-transferase activities (ALT) activities, were determined at different time points, as described further herein. At each time point and for each parameter, a mean % of the effect was calculated according to the following formula: ((T final−T initial)/T initial)*100. Statistical analysis was consistent in a one-way analysis of variance followed by multiple comparisons versus the vehicle group (Dunnett's test) on final values. In case the equal variance test fails, a Kruskall-Wallis one-way analysis of variance on ranks was conducted. A difference was considered significant for p<0.05.

[2] = system: db/db mice; assay: Body weight of db/db mice (Example 1); assay type: in vivo
Procedure: Throughout the experiment period (T1-T26), daily individual body weights as well as food intake per cage were measured.

[3] = system: db/db mice; assay: Serum nonesterified fatty acids (NEFA) in db/db mice (Example 1); assay type: in vivo
Procedure: A difference was considered significant for p<0.05.
Serum nonesterified fatty acids (NEFA) levels were determined by calorimetric method using a non esterified fatty acids kit (ref. FA 15, Randox, France).

[4] = system: db/db mice; assay: Serum transaminase (AST, ALT) activity in db/db mice (Example 1)
Procedure: Test animals: 24 female 10-12 weeks old db/db mice (C57BL/Ks J Rj-db/db, Janvier, France), weighing in the target range of 40-50 g, were used in this study. These mice were housed in a temperature (19.5-24.5° C.) and relative humidity (45-65%) controlled room with a 12-hour light/dark cycle, with ad libitum access to filtered tap-water and irradiated pelleted laboratory chow (SAFE, France) throughout the study. Upon receipt at animal facilities, they were housed 4 per cage covered with filtered caps and at least a 5-day acclimation period was observed.
as §1
Collection of samples for analysis: One day before beginning the treatment (T0), non fasted db/db mice were weighed and blood samples were collected through the retro-orbital plexus (about 300 μL/mouse) under isoflurane anesthesia. Similarly, at day 5 (T5), day 12 (T12), day 19 (T19) and day 26 (T26), two hours after the last administration, blood samples were collected through the retro-orbital plexus under isoflurane anesthesia in non fasted mice.
as §2
Aspartate amino-transferase (AST) and alanine amino-transferase (ALT) activities were determined with an AST kit (ref. 442665, Beckman Coulter, France), an ALT kit (ref. 442620, Beckman Coulter, France), using a Synchron CX4 analyzer.

Compound: CN(CCOc1ccc(CC2SC(=O)NC2=O)cc1)c1ccccn1 (stereo not shown) [Rosiglitazone, reference compound]
- triglycerides levels T0 ([1]; day 0, before treatment): 1.39 mM
- triglycerides levels T5 ([1]; day 5): 0.81 mM
- triglycerides % effect T5-T0 ([1]; day 5 vs day 0): −30.1%
- triglycerides levels T12 ([1]; day 12): 0.61 mM
- triglycerides % effect T12-T0 ([1]; day 12 vs day 0): −51.0%
- triglycerides levels T19 ([1]; day 19): 0.64 mM
- triglycerides % effect T19-T0 ([1]; day 19 vs day 0): −46.1%
- triglycerides levels T26 ([1]; day 26): 1.58 mM
- triglycerides % effect T26-T0 ([1]; day 26 vs day 0): 23.4%
- body weight, mean ([2]; Day 0): 42.3 g
- body weight expressed as % of baseline, mean ([2]; Day 1): 98.3 % of baseline
- body weight, mean ([2]; Day 1): 41.6 g
- body weight expressed as % of baseline, mean ([2]; Day 2): 99.5 % of baseline
- body weight, mean ([2]; Day 2): 42.1 g
- body weight expressed as % of baseline, mean ([2]; Day 3): 100.0 % of baseline
- body weight, mean ([2]; Day 3): 42.3 g
- body weight expressed as % of baseline, mean ([2]; Day 4): 100.8 % of baseline
- body weight, mean ([2]; Day 4): 42.7 g
- body weight expressed as % of baseline, mean ([2]; Day 5): 102.2 % of baseline
- body weight, mean ([2]; Day 5): 43.3 g
- body weight expressed as % of baseline, mean ([2]; Day 6): 100.6 % of baseline
- body weight, mean ([2]; Day 6): 42.6 g
- body weight expressed as % of baseline, mean ([2]; Day 7): 101.1 % of baseline
- body weight, mean ([2]; Day 7): 42.8 g
- body weight expressed as % of baseline, mean ([2]; Day 8): 102.3 % of baseline
- body weight, mean ([2]; Day 8): 43.3 g
- body weight expressed as % of baseline, mean ([2]; Day 9): 103.8 % of baseline
- body weight, mean ([2]; Day 9): 43.9 g
- body weight expressed as % of baseline, mean ([2]; Day 10): 104.2 % of baseline
- body weight, mean ([2]; Day 10): 44.1 g
- body weight expressed as % of baseline, mean ([2]; Day 11): 104.9 % of baseline
- body weight, mean ([2]; Day 11): 44.4 g
- body weight expressed as % of baseline, mean ([2]; Day 12): 106.3 % of baseline
- body weight, mean ([2]; Day 12): 45.0 g
- body weight expressed as % of baseline, mean ([2]; Day 13): 104.9 % of baseline
- body weight, mean ([2]; Day 13): 44.4 g
- body weight expressed as % of baseline, mean ([2]; Day 14): 105.1 % of baseline
- body weight, mean ([2]; Day 14): 44.5 g
- body weight expressed as % of baseline, mean ([2]; Day 15): 104.9 % of baseline
- body weight, mean ([2]; Day 15): 44.4 g
- body weight expressed as % of baseline, mean ([2]; Day 18): 105.5 % of baseline
- body weight, mean ([2]; Day 18): 44.7 g
- body weight expressed as % of baseline, mean ([2]; Day 19): 106.0 % of baseline
- body weight, mean ([2]; Day 19): 44.9 g
- body weight expressed as % of baseline, mean ([2]; Day 20): 104.3 % of baseline
- body weight, mean ([2]; Day 20): 44.2 g
- body weight expressed as % of baseline, mean ([2]; Day 21): 105.3 % of baseline
- body weight, mean ([2]; Day 21): 44.6 g
- body weight expressed as % of baseline, mean ([2]; Day 22): 105.1 % of baseline
- body weight, mean ([2]; Day 22): 44.5 g
- body weight expressed as % of baseline, mean ([2]; Day 25): 106.7 % of baseline
- body weight, mean ([2]; Day 25): 45.2 g
- body weight expressed as % of baseline, mean ([2]; Day 26): 106.9 % of baseline
- body weight, mean ([2]; Day 26): 45.3 g
- NEFA levels T0 ([3]; day 0, before treatment): 0.782 mM
- NEFA levels T5 ([3]; day 5): 0.507 mM
- NEFA % effect T5-T0 ([3]; day 5 vs day 0): −32.8%
- NEFA levels T12 ([3]; day 12): 0.444 mM
- NEFA % effect T12-T0 ([3]; day 12 vs day 0): −39.9%
- NEFA levels T19 ([3]; day 19): 0.739 mM
- NEFA % effect T19-T0 ([3]; day 19 vs day 0): −2.2%
- NEFA levels T26 ([3]; day 26): 0.345 mM
- NEFA % effect T26-T0 ([3]; day 26 vs day 0): −53.7%
- ALT T0 ([4]; day 0, before treatment): 157.5 IU/L
- ALT/AST ratio T0 ([4]; day 0, before treatment): 1.00
- AST T0 ([4]; day 0, before treatment): 185.8 IU/L
- ALT T5 ([4]; day 5): 172.3 IU/L
